Results published in PubChem BioAssay (NCI).
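Compound exposure: 48 hours, 5 concentrations, 96-well plates. GI50 = concentration required for 50% inhibition of growth. TGI is the concentration that stops growth completely.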

Experiments:
Test in all cases: DTP human tumour cell line panel, 48 h
[1] = system: CCRF-CEM leukemia
[2] = system: SNB-75 CNS
[3] = system: OVCAR-3 ovarian
[4] = system: M14 melanoma
[5] = system: U251 CNS
[6] = system: SR leukemia
[7] = system: OVCAR-8 ovarian
[8] = system: HOP-92 NSCLC
[9] = system: UO-31 renal
[10] = system: NCI-H460 lung

Compound | GI50 [1] [µM] | TGI [1] [µM] | GI50 [2] [µM] | TGI [2] [µM] | GI50 [3] [µM] | TGI [3] [µM] | GI50 [4] [µM] | TGI [4] [µM] | GI50 [5] [µM] | TGI [5] [µM] | GI50 [6] [µM] | TGI [6] [µM] | GI50 [7] [µM] | TGI [7] [µM] | GI50 [8] [µM] | TGI [8] [µM] | GI50 [9] [µM] | TGI [9] [µM] | GI50 [10] [µM] | TGI [10] [µM]
CC[C@H](C)C(=O)O[C@H]1C[C@H](O)C=C2C=C[C@H](C)[C@H](CC[C@@H](O)C[C@@H](O)CC(=O)O)[C@H]21 | > 100 | > 100 | > 100 | > 100 | > 100 | > 100 | > 100 | > 100 | > 100 | > 100 | > 100 | > 100 | > 100 | > 100 | 23 | > 100 | > 100 | > 100 | > 100 | > 100
COc1cc(-c2csc(NC(=O)Nc3cc(Cl)cc(Cl)c3)n2)cc(OC)c1OC | 3.41 | > 100 | 1.49 | 2.88 | 1.8 | 3.26 | 1.68 | 3.15 | 1.68 | 3.15 | 2 | 6.61 | 1.84 | 3.87 | 1.7 | 3.73 | 1.67 | 3.3 | 1.81 | 3.52
CCCCCCCCCCCCCCCCCC(=O)Nc1ccn(C2OC(CO)C(O)C2O)c(=O)n1 (stereo not drawn) | – | 26.2 | – | > 94.6 | – | 69.6 | – | > 77.3 | – | > 100 | – | 56.4 | – | > 84.8 | – | > 100 | – | > 79.3 | – | > 100
CC(=O)c1nc2ccccc2n1CC(=O)c1cccc(Cl)c1 | 1.17 | > 26.2 | 0.313 | 59.8 | 0.239 | > 100 | 0.262 | > 100 | 0.534 | > 100 | 0.121 | 1.48 | 0.873 | > 100 | – | > 86.2 | 1.27 | > 100 | 0.36 | –
CC(C)(C)c1ccc(NS(=O)(=O)c2ccc3nc(NC(=O)c4cnccn4)[nH]c3c2)cc1 | 3.2 | > 100 | 1.75 | 6.49 | 0.654 | 3.03 | 2.42 | 17.6 | 3.96 | 19.6 | 0.68 | > 100 | 5.78 | 38.8 | 1.5 | 5.92 | 2.08 | 10.7 | 2.59 | 11
COc1c(B(O)O)cc(F)cc1-c1nc2ccc3[nH]ncc3c2c2c1CCCC2 | 0.53 | > 38.6 | < 0.01 | 0.0607 | 2.95 | 10.2 | 2.64 | 5.44 | 1.6 | 13.1 | 0.108 | > 38.6 | 1.55 | 17.7 | < 0.01 | 14.4 | 0.045 | 9.21 | 0.822 | 10.5
C=CC(COC(c1ccccc1)(c1ccccc1)c1ccccc1)N(CC)CC (stereo not drawn) | 3.76 | 14.8 | 10.3 | 22.5 | 7.04 | 20.3 | 2.53 | 6.19 | 2.98 | 12 | 2.13 | 5.29 | 5.87 | 20.1 | 4.5 | 18 | 3.54 | 16.4 | 2.5 | 6.58
CCc1cccc(C)c1NC(=O)CC1C(=O)Nc2ccccc2S1(=O)=O (stereo not drawn) | – | 41.6 | – | 31.2 | – | 33.5 | – | 72.1 | – | 32.5 | – | 23.8 | – | 54.1 | – | 31.8 | – | 27.7 | – | 27.9
O=C(NC(=S)Nc1cc(Cl)ccc1O)c1cccc(Br)c1 | 3.68 | > 100 | 11.8 | 75.8 | 4.72 | 24.9 | 26.3 | > 100 | 3.95 | > 100 | 7.34 | > 100 | 6.54 | > 100 | 10.5 | 59.2 | 6.12 | 56.3 | 4.42 | > 100
O=C(O)c1cc2ccccc2c2c1C(=O)c1ccccc1-2 | – | > 100 | – | > 100 | – | > 100 | – | > 100 | – | > 100 | – | > 100 | – | > 100 | – | > 100 | – | > 100 | – | > 100
